Source: ChEMBL document CHEMBL1909046, “DrugMatrix in vitro pharmacology data”

Columns and labels:
[1] = biological target: Protein kinase C alpha type (Homo sapiens, UniProt P17252); type: cell-based; conditions: sf9;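 further: inhibition of PKCalpha kinase activity measured in an enzyme assay with histone as the phosphorylation substrate; in other assays of this panel Not Active means under 50% inhibition at 10 µM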
[2] = biological target: T1, Muscarinic acetylcholine receptor M2 (Homo sapiens, UniProt P08172); type: cell membranes, CHO-K1, Membrane; conditions: cho-k1; further: in other assays of this panel Not Active means under 50% inhibition at 10 µM
T1 sequence (P08172 whole entry): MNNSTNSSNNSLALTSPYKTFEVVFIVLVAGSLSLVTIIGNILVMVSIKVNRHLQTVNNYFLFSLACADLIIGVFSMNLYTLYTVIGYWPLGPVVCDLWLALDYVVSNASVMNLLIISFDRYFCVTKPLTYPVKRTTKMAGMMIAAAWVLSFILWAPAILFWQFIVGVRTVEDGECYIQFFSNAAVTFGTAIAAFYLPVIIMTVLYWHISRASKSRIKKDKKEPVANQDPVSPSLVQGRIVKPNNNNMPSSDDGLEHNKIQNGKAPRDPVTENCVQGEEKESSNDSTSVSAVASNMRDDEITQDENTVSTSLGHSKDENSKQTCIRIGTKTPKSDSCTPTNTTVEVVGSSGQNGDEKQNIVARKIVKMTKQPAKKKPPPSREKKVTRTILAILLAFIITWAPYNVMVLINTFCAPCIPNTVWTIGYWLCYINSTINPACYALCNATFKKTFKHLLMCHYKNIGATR

[3] = biological target: T2, Caspase-1 (Homo sapiens, UniProt P29466); parameters: species or system Escherichia coli;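 further: Caspase-1 enzyme inhibition assay with a peptide substrate; in other assays of this panel Not Active means under 50% inhibition at 10 µM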
T2 sequence (P29466 whole entry): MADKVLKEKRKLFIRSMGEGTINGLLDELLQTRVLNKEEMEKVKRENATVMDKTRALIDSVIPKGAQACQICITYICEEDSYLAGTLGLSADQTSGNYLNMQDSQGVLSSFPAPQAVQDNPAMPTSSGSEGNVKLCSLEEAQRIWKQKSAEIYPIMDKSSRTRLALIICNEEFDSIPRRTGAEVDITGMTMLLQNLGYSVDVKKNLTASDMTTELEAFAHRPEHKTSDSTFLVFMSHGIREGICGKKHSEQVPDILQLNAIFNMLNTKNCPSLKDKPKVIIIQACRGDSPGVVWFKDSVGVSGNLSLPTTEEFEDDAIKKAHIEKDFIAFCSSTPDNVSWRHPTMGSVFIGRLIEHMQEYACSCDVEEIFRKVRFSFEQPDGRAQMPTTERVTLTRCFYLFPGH

[4] = biological target: 5-hydroxytryptamine receptor 4 (Cavia porcellus, UniProt O70528); type: cell membranes, Dunkin-Hartley, Striatum, Membrane; further: in other assays of this panel Not Active means under 50% inhibition at 10 µM
[5] = biological target: T3, Amine oxidase [flavin-containing] A (Homo sapiens, UniProt P21397); assay: DRUGMATRIX: Monoamine Oxidase MAO-A enzyme inhibition (substrate: Kynuramine); parameters: species or system BTI-TN-5B1-4; conditions: bti-tn-5b1-4; Not Active = under 50% inhibition at 10 µM
T3 sequence (P21397 whole entry): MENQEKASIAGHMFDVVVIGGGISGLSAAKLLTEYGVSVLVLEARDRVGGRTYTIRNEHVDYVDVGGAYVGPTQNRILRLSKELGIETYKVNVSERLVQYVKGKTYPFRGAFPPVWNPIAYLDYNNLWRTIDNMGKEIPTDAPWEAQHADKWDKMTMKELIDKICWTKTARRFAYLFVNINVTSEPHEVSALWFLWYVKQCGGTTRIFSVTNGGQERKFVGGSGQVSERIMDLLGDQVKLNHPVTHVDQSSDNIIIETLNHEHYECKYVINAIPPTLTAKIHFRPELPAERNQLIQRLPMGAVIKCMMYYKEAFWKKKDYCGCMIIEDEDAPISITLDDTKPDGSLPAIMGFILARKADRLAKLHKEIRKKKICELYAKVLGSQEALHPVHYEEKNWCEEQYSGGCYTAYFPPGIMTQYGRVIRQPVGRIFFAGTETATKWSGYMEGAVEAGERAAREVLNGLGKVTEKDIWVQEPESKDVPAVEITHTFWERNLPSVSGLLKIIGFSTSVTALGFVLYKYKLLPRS

[6] = biological target: T4, Cytochrome P450 1A2 (Homo sapiens, UniProt P05177); conditions: bti-tn-5b1-4; further: in other assays of this panel Not Active means under 50% inhibition at 10 µM
T4 sequence (P05177 whole entry): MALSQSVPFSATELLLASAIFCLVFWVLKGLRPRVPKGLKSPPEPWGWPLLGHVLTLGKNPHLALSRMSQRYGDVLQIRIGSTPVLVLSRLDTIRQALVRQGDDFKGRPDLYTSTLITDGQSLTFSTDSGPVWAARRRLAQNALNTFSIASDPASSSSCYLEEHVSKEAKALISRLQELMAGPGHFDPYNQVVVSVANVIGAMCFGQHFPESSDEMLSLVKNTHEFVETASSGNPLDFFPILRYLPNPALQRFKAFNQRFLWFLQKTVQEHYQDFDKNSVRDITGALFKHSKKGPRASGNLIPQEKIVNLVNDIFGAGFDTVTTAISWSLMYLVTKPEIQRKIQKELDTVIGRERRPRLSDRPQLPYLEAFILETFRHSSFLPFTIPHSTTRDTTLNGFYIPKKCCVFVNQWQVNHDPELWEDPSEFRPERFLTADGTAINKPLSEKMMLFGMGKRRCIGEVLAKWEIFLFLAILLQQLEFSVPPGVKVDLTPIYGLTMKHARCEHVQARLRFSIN

Sequence of 5-hydroxytryptamine receptor 4 (O70528 whole entry): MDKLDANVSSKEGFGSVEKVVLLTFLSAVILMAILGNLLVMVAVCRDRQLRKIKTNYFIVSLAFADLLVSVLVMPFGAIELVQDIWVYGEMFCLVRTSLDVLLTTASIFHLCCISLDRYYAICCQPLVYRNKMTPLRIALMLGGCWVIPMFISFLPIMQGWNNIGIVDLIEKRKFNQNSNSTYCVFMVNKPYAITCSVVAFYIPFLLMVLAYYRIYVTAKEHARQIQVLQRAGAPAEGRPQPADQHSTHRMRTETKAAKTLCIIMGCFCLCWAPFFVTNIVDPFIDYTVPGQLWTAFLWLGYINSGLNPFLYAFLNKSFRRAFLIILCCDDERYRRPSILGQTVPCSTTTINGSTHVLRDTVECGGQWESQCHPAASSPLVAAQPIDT

COc1ccc(C2C(=O)c3ccccc3C2=O)cc1 [ANISINDIONE]
Not Active: IC50 [1] | IC50 [2] | IC50 [3] | IC50 [4] | IC50 [5] | IC50 [6] | Ki [6]

CC[C@H](C)[C@H]1O[C@]2(C=C[C@@H]1C)C[C@@H]1C[C@@H](C/C=C(\C)[C@@H](O[C@H]3C[C@H](OC)[C@@H](O[C@H]4C[C@H](OC)[C@@H](O)[C@H](C)O4)[C@H](C)O3)[C@@H](C)/C=C/C=C3\CO[C@@H]4[C@H](O)C(C)=C[C@@H](C(=O)O1)[C@]34O)O2.CO[C@H]1C[C@H](O[C@H]2[C@H](C)O[C@@H](O[C@@H]3/C(C)=C/C[C@@H]4C[C@@H](C[C@]5(C=C[C@H](C)[C@@H](C(C)C)O5)O4)OC(=O)[C@@H]4C=C(C)[C@@H](O)[C@H]5OC/C(=C\C=C\[C@@H]3C)[C@]54O)C[C@@H]2OC)O[C@@H](C)[C@@H]1O [ABAMECTIN]
Not Active: IC50 [1] | IC50 [2] | IC50 [3] | IC50 [4] | IC50 [5] | IC50 [6] | Ki [6]

CN/C(=N\CCSCc1nc[nH]c1C)NC#N [CIMETIDINE]
Not Active: IC50 [1] | IC50 [2] | IC50 [3] | IC50 [4] | IC50 [5] | IC50 [6] | Ki [6]

NYSTATIN
Not Active: IC50 [1] | Ki [1] | IC50 [2] | Ki [2] | IC50 [3] | Ki [3] | IC50 [4] | Ki [4] | IC50 [5] | Ki [5] | IC50 [6] | Ki [6]

COC(=O)Nc1nc2ccc([S+]([O-])c3ccccc3)cc2[nH]1 (centres undefined) [OXFENDAZOLE]
Not Active: IC50 [1] | IC50 [2] | IC50 [3] | IC50 [4] | IC50 [5] | IC50 [6] | Ki [6]

CCC1(C)CC(=O)NC1=O (centres undefined) [ETHOSUXIMIDE]
Not Active: IC50 [1] | IC50 [2] | IC50 [3] | IC50 [4] | IC50 [5] | IC50 [6] | Ki [6]

Brc1c(NC2=NCCN2)ccc2nccnc12 [BRIMONIDINE]
Not Active: IC50 [1] | IC50 [2] | IC50 [3] | IC50 [4] | IC50 [5] | IC50 [6] | Ki [6]

CC[C@H]1CN2CCc3cc(OC)c(OC)cc3[C@@H]2C[C@@H]1C[C@H]1NCCc2cc(OC)c(OC)cc21 [EMETINE]
Not Active: IC50 [1] | IC50 [2] | IC50 [3] | IC50 [4] | IC50 [5] | IC50 [6] | Ki [6]

COC(=O)CCc1ccc(OCC(O)CNC(C)C)cc1 (centres undefined) [ESMOLOL]
Not Active: IC50 [1] | IC50 [2] | IC50 [3] | IC50 [4] | IC50 [5] | IC50 [6] | Ki [6]

COc1ccc(C(=O)N2CCCC2=O)cc1
Not Active: IC50 [1] | IC50 [2] | IC50 [3] | IC50 [4] | IC50 [5] | IC50 [6] | Ki [6]

O=C(O)CCNC(=O)c1ccccc1 [BETAMIPRON]
Not Active: IC50 [1] | IC50 [2] | IC50 [3] | IC50 [4] | IC50 [5] | IC50 [6] | Ki [6]

O=c1cnn([C@@H]2O[C@H](CO)[C@@H](O)[C@H]2O)c(=O)[nH]1 [6-AZAURIDINE]
Not Active: IC50 [1] | IC50 [2] | IC50 [3] | IC50 [4] | IC50 [5] | IC50 [6] | Ki [6]

Cc1c(OCC(F)(F)F)ccnc1C[S+]([O-])c1nc2ccccc2[nH]1 (centres undefined) [LANSOPRAZOLE]
Not Active: IC50 [1] | IC50 [2] | IC50 [3] | IC50 [4] | IC50 [5] | IC50 [6] | Ki [6]

C[C@@H]1C[C@H]2[C@@H]3CCC4=CC(=O)C=C[C@]4(C)[C@@]3(F)[C@@H](O)C[C@]2(C)[C@H]1C(=O)CO [DESOXIMETASONE]
Not Active: IC50 [1] | IC50 [2] | IC50 [3] | IC50 [4] | IC50 [5] | IC50 [6] | Ki [6]

O=C(c1ccccc1C(F)(F)F)N1CCC(Cc2ccccc2)CC1
Not Active: IC50 [1] | IC50 [2] | IC50 [3] | IC50 [4] | IC50 [5] | IC50 [6] | Ki [6]

N=C(N)NC(=O)Cc1c(Cl)cccc1Cl [GUANFACINE]
Not Active: IC50 [1] | IC50 [2] | IC50 [3] | IC50 [4] | IC50 [5] | IC50 [6] | Ki [6]

NC(=O)C[S+]([O-])C(c1ccccc1)c1ccccc1 (centres undefined) [MODAFINIL]
Not Active: IC50 [1] | IC50 [2] | IC50 [3] | IC50 [4] | IC50 [5] | IC50 [6] | Ki [6]
